Reference: ChEMBL document CHEMBL1201862, “PubChem BioAssay data set” (2004)
Where a name gives a salt, the structure may show the parent alone. Calls of active or inactive are those of the source.

Columns and labels:
Genome polyprotein = Genome polyprotein (dengue virus type 2, UniProt P29990); test: flavivirus cap methylation enzyme inhibition – biochemical, confirmation dose response, primary screen (AID 588689); assay type: functional
[1] = target: T1, Apoptotic protease-activating factor 1 (Homo sapiens, UniProt O14727); assay type: functional
T1 sequence (O14727 whole entry): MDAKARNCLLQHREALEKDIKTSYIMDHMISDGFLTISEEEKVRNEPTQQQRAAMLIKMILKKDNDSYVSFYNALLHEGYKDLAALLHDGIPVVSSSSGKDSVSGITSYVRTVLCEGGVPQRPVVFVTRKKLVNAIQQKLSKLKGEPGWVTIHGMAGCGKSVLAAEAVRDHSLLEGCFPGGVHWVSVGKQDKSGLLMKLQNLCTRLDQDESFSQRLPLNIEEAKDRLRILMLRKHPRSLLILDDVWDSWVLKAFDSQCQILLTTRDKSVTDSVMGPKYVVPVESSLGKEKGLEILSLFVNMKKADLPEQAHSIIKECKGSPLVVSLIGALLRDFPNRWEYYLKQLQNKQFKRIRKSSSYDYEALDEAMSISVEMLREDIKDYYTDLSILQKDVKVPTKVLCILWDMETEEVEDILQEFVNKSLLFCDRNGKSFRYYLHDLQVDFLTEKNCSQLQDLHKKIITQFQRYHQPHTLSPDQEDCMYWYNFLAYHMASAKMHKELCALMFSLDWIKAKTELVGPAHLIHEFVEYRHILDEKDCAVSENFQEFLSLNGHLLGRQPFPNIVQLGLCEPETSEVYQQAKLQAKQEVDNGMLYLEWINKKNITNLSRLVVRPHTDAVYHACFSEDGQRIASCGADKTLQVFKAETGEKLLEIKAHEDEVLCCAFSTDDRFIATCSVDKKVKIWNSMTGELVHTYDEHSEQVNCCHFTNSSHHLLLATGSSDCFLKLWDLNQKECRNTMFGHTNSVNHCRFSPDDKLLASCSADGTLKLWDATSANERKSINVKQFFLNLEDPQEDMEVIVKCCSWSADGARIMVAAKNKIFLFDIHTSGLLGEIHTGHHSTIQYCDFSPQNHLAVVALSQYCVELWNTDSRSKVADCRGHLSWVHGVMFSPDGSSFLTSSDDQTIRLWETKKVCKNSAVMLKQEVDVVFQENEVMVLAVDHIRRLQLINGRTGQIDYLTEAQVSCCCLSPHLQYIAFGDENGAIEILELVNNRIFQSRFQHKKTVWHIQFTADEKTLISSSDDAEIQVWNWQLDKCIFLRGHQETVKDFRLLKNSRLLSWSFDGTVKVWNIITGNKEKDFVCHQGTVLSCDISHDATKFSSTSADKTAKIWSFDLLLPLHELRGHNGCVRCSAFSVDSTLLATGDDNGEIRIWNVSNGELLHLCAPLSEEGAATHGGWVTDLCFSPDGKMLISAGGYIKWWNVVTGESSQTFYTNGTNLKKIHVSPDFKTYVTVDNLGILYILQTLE

[2] = target: T2, DNA repair protein RAD52 homolog (Homo sapiens, UniProt P43351); assay type: functional, biochemical
T2 sequence (P43351 whole entry): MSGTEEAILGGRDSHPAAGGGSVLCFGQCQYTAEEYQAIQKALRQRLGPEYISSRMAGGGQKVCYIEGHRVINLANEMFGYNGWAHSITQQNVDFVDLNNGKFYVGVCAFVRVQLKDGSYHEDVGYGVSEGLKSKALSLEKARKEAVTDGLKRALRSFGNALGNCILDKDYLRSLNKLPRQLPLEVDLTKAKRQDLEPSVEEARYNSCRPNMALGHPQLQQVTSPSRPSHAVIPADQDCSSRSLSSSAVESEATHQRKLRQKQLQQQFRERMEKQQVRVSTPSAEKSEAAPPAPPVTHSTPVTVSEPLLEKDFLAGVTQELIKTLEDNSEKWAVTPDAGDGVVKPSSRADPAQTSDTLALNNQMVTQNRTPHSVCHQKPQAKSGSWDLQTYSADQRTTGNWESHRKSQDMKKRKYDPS

[3] = HIV-1 AD8 envelope cell-cell fusion blockers – cherry-pick, dose response (AID 652062); assay type: functional, cell-based;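 also: luciferase signal from cell-cell fusion driven by HIV-1 clade B AD8 Env; potency is for inhibitors of fusion seen as a drop in luminescence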
[4] = blockers of HIV-1 envelope-mediated cell-cell fusion – cherry-pick, dose response (AID 652057); assay type: functional, cell-based
[5] = blockers of HIV-1 ZM109 envelope-driven cell-cell fusion – HeLa effector, CEM target cells, luciferase, cherry-pick, dose response (AID 652058); assay type: functional, cell-based;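 also: luciferase signal from HIV-1 Env mediated cell-cell fusion of effector and target cells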
[6] = off-target signal loss in HeLa-CEM21 co-culture – HeLa F-luc CTL cells, cherry-picked, counter-screen for HIV-1 Env fusion inhibitor project, dose response (AID 652040); assay type: functional, cell-based;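 also: potency for signal decrease marking cytotoxic or nonspecific inhibition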
[7] = target: T3, Sentrin-specific protease 8 (Homo sapiens, UniProt Q96LD8); assay type: functional
T3 sequence (Q96LD8 whole entry): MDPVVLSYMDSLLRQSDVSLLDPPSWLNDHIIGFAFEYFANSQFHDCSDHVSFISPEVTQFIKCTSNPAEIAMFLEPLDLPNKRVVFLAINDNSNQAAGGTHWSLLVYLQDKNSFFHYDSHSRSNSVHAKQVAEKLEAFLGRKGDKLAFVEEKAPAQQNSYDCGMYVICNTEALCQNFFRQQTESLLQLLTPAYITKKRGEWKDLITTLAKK

[8] = target: T3, Sentrin-specific protease 8; assay type: functional; remark: listed apart in the source
[9] = target: T4, Oxysterols receptor LXR-beta (Homo sapiens, UniProt P55055); test: LXR agonists, Gal4 luciferase reporter, dose response, counter-screen for ssDAF-12 agonist project, cell-based, luminescence, HEK293, S. stercoralis campaign (AID 720737); assay type: functional; conditions: read-out: IC50 (the source's name)
T4 sequence (P55055 whole entry): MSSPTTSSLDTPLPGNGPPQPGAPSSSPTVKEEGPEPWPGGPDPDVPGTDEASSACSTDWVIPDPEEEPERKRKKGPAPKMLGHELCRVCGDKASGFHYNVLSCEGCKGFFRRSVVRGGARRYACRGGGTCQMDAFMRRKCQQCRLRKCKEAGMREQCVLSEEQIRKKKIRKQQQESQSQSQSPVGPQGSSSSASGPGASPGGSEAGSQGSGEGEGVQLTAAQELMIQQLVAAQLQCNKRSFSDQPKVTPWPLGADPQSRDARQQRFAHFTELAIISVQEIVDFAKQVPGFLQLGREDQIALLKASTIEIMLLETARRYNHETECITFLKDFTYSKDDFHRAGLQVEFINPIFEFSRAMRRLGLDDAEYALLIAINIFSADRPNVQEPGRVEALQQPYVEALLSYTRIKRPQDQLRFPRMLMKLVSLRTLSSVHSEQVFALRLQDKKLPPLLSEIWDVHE

[10] = Luminescence-based cell-based high throughput dose response assay to identify activators of the DAF-12 from the parasite S. stercoralis (ssDAF-12).; assay type: functional
[11] = target: T5, Probable nicotinate-nucleotide adenylyltransferase (Staphylococcus aureus (strain N315), UniProt P65502); assay type: functional, Staphylococcus aureus subsp. aureus N315;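 as to IC50 Mean: confirmatory dose-response retesting of NadD inhibitor hits first found in an ultra-high-throughput screen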
T5 sequence (P65502 whole entry): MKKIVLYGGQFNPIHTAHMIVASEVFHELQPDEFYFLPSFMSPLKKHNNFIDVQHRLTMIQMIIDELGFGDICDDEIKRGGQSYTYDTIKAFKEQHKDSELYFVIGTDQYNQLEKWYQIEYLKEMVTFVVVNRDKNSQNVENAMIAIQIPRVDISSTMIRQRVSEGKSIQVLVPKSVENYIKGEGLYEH

[12] = target: T5, Probable nicotinate-nucleotide adenylyltransferase; assay type: functional, Staphylococcus aureus subsp. aureus N315; conditions: read-out: IC50_Mean
[13] = target: T6, Adenosylmethionine-8-amino-7-oxononanoate aminotransferase (Mycobacterium tuberculosis, UniProt P9WQ81); test: Mycobacterium tuberculosis BioA enzyme inhibitor Measured in Biochemical System Using Plate Reader - 2163-02_Inhibitor_Dose_CherryPick_Activity.; assay type: functional, Mycobacterium tuberculosis UT205
T6 sequence (P9WQ81 whole entry): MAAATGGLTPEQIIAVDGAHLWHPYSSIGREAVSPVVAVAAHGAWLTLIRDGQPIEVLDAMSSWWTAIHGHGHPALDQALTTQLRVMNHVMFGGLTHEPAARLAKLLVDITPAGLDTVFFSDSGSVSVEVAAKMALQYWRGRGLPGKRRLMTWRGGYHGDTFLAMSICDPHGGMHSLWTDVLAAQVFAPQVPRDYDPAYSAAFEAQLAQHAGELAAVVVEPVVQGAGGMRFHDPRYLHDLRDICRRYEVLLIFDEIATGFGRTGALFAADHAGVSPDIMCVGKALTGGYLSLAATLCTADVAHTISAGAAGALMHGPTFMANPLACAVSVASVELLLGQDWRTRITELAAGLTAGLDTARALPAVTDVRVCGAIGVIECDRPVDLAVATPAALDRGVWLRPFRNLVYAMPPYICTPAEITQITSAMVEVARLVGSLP

[14] = target: T7, High affinity choline transporter 1 (Homo sapiens, UniProt Q9GZV3); test: human choline transporter blockers, potency – cell-based, 5-point CRC, membrane potential dye, dose response (AID 504840); assay type: functional
T7 sequence (Q9GZV3 whole entry): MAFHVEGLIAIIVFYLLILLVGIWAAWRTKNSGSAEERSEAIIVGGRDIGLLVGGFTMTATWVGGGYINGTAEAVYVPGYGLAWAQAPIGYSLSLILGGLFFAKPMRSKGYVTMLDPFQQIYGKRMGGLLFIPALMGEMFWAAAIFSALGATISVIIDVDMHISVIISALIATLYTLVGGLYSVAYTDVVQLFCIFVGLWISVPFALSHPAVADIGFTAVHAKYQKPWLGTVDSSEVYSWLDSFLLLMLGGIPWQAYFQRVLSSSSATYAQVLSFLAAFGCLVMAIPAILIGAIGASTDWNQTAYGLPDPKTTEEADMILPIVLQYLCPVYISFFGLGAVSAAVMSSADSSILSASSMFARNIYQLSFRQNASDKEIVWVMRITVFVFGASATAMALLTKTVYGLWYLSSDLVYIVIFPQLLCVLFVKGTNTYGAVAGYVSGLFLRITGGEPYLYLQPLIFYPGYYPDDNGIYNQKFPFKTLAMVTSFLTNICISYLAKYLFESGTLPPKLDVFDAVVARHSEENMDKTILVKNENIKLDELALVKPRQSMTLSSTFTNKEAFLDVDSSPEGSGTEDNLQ

[15] = activation of miR-122 Renilla sensor silencing – cell-based, Huh7 psiCHECK-miR122, Renilla luciferase, cherry-picked, dose response (AID 651956); assay type: functional;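 also: huh7 hepatoma cells stably carrying a psiCHECK-2 miR-122 sensor plasmid; renilla luciferase signal reporting endogenous miR-122 activity after 48 h compound exposure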
Caspase-6 = target: T8, Caspase-6 (Homo sapiens, UniProt P55212); test: inhibition of CASP6 peptide cleavage – biochemical, VEID-R110 fluorescence, cherry-pick, dose response (AID 720632)
T8 sequence (P55212 whole entry): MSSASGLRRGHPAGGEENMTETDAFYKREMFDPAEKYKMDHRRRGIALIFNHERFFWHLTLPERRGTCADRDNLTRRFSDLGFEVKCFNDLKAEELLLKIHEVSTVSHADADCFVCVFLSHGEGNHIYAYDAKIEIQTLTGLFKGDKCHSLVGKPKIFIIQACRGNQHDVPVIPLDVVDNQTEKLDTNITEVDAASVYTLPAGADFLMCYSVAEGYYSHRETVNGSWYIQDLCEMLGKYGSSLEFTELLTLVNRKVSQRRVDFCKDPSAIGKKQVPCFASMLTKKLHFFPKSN

[16] = microbe, parasite or virus in culture; assay type: functional; conditions: Mycobacterium tuberculosis
[17] = HPDE-C7 pancreatic duct cell viability loss – fluorescence, HTS (AID 430); assay type: functional, cell-based; conditions: Homo sapiens
[18] = viability loss of HPDE-C7K cells – cell-based, fluorescence, HTS, primary screen (AID 431); assay type: functional; conditions: Homo sapiens
[19] = target: FAD-linked sulfhydryl oxidase ALR (Homo sapiens, UniProt P55789); test: ALR-catalysed DTT oxidation blockers – biochemical, H2O2 detection, luminescence, cherry-pick, dose response (AID 493248)
FAD-linked sulfhydryl oxidase ALR, sequence (P55789 whole entry): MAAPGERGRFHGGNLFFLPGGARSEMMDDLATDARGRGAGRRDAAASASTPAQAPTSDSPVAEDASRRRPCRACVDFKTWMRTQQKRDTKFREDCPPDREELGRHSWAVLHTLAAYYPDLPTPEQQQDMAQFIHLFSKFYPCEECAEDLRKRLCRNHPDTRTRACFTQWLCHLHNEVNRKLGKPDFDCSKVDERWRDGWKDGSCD

Genome polyprotein, sequence (P29990 2492-3391 limits assumed): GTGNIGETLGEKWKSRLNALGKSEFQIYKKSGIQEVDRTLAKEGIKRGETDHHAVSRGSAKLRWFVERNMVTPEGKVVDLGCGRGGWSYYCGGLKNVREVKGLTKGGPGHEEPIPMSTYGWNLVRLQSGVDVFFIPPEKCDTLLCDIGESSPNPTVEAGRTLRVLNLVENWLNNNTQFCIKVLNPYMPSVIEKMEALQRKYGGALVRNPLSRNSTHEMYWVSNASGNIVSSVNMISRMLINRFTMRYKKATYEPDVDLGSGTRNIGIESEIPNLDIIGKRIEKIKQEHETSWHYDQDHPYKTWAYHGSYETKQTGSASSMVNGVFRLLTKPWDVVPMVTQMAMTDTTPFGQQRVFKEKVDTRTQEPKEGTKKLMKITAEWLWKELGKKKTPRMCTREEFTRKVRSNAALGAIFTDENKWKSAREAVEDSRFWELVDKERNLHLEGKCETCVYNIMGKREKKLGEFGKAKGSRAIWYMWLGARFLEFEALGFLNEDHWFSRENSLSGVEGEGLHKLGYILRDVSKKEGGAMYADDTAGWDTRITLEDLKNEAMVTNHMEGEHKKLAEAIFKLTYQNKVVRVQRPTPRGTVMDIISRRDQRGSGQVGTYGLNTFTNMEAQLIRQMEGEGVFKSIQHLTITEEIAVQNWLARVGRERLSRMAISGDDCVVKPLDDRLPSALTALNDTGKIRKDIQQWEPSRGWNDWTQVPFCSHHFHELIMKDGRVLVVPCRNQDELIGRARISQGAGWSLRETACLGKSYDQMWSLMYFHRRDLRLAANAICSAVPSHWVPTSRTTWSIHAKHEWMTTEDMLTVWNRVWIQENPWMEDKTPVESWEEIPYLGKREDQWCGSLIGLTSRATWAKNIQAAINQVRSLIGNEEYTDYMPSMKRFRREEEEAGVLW

With COC(=O)CCC(=O)OC1(C)C(=O)C2=CN(CC3CC3)C(c3ccc(OC)cc3)=CC2=C(Br)C1=O (centres undefined) the IC50 (Genome polyprotein) was 30.5 µM (active) and the IC50 [1] was 31.7 µM (active).
In the case of CCOC(=O)N1CCN(C(S)=Nc2ccc3nc(N4CCN(CC)CC4)cc(C)c3c2)CC1, the AC50 [2] is reported as 15 µM (active).
For COc1ccc([C@@H]2[C@@H]3C(=O)N(C(C)(C)C)C(=O)[C@@H]3[C@]3(CC(C)C)C(=O)N(c4cccc(Br)c4)C(=O)N23)cc1, the AC50 [3] was < 0.26 µM (active), the AC50 [4] was < 0.26 µM (active) and the AC50 [5] was < 0.26 µM (active). The AC50 [6] was < 0.26 µM (active).
With COC/C=C/C1=CC2=CC(=O)C(C)(OC(=O)c3cnc4ccccc4n3)C(=O)C2=CN1C1CC1 (centres undefined) the IC50 (Genome polyprotein) was > 100 µM (active), the IC50 [7] was 16.6 µM (active) and the IC50 [8] was 6.36 µM (active).
For COc1ccc(CSc2nnc3nc(O)cc(N)n23)cc1, the EC50 [9] was > 67.6 µM (inactive) and the IC50 [10] was > 67.6 µM (inactive).
For C/C=C\C=C/C(=O)Nc1cccc(C2=NOC3(C2)C[C@@H](C(N)=O)N(C(=O)COc2ccc(Cl)cc2)C3)c1 (some centres undefined), the IC50 [11] was 10.7 µM (active) and the IC50 [12] was 17.3 µM (active).
For CCN(CC)CCNC(=O)c1cn(CC)c2ccc(S(=O)(=O)N3CCc4ccccc4C3)cc2c1=O, the AC50 [13] was 2.88 µM (active) and the IC50 [14] was 11.2 µM (active).
In the case of O=C(c1ccc([N+](=O)[O-])cc1)N1CCOCC1, the EC50 [9] is reported as > 67.4 µM (inactive) and the IC50 [10] is reported as > 67.4 µM (inactive).
In the case of COc1cc(C(=O)N2Cc3cc4ccccc4nc3C2C)cc(OC)c1OC (centres undefined), the AC50 [13] is reported as 2.01 µM (active).
In the case of CC(=O)N(C[C@H]1N[C@H](CO)[C@@H]1c1ccc(-c2ccccc2)cc1)C(C)C, the AC50 [15] is reported as 23.3 µM (active).
In the case of COc1ccc(OCCNc2c([N+](=O)[O-])c(=O)oc3ccccc23)cc1, the IC50 [1] is reported as 4.61 µM (active).
With Cc1[nH]cnc1CN1CCc2c(c3ccccc3n2C)C1=O [ALOSETRON HYDROCHLORIDE] the AC50 (Caspase-6) was 11.5 µM (active), the IC50 [7] was 18.2 µM (active) and the IC50 [8] was 7.1 µM (active).
In the case of CN(C)CCCN1c2ccccc2Sc2ccc(Cl)cc21 [CHLORPROMAZINE HYDROCHLORIDE], the CC50 [16] is reported as 26 µM (active), the AC50 [2] is reported as < 25.3 µM (active) and the EC50 [17] is reported as > 20 µM (not active). For the same compound, the EC50 [18] was > 20 µM (not active) and the AC50 [19] was 1.01 µM (active).
